Data on one compound can be found in PMC13598332, “Selective activation of tetrodotoxin-sensitive sodium channels by AaH-II drives arrhythmogenic late Na^+ current in the heart” (Europace, 2026).

Entries after “also recorded” stand apart in the source; their conditions may differ.

One data set has as its target hNav1.6 (Homo sapiens, UniProt Q9UQD0). The format is cell-based.
Data set [1] concerns human iPS-derived cardiomyocytes. Nature of the data set: Automated patch-clamp of Na+ current in human iPS-derived cardiomyocytes. The format is cell-based. On the procedure:
The control hiPSC cell line (ITXi002-A; IRX5-Wt[16]; RRID:CVCL_B5QD) was generated from primary dermal fibroblasts and previously characterized.[17–19] hiPSCs were maintained at 37°C, 5% CO2, 21% O2 in StemMacs PSC-Brew XF human medium (Miltenyi Biotec, #130-127-865) on culture plates coated with 0.05 mg/mL Matrigel hESC-Qualified Matrix (Corning, #354277) in DMEM F12 (Gibco, #11320033). At 75% confluency, the cells were passaged using the Gentle Cell Dissociation Reagent (StemCell Technologies, #07174).
We generated right ventricular-like cardioids on 96-well low-attachment plates using the Schmidt et al. (2023) protocol.[20] At D15.5, cardioids were pooled, dissociated, and replated as a monolayer in MW12 plates (Falcon, #353047) coated with Matrigel (Corning, #354277) for automated patch-clamp, and as single cells in 35-mm Petri dishes (NUNC #055055) coated with Matrigel for manual patch-clamp. Immediately before patch-clamp recording, cardiomyocytes were single-cell dissociated using Accutase (Sigma, #A6964).
For human iPSC-derived cardiomyocytes recordings, cells were resuspended at 300 000 cells/mL in a solution composed of 50% culture media and 50% extracellular buffer containing (in mM) 140 NaCl, 4 KCl, 2 CaCl2, 1 MgCl2, 5 glucose, and 10 HEPES (pH 7.4, osmolarity 298 mOsm) supplemented with 5 µM nifedipine. Single-hole, low-resistance chips (3–5 MΩ) were used. The intracellular solution contained (in mM) 10 KCl, 110 KF, 10 NaCl, 1 MgCl2, 1 CaCl2, 10 Ethylene Glycol Tetra-acetic Acid (EGTA), and 10 HEPES (pH 7.2, osmolarity 280 mOsm). Currents were recorded and analysed as previously described for stable cell lines.
On the technique in general: The patch-clamp technique gives a direct electrical read-out from membranes.

Data set [2] concerns adult rat ventricular myocytes. The data set is classed as cell-based.
Data set [3] deals with adult rat ventricular cardiomyocytes. Nature of the data set: Calcium imaging (SCR events) in isolated rat cardiomyocytes. The format is cell-based. On the procedure:
Eleven-week-old Wistar Han rats were euthanized by intraperitoneal (i.p.) injection of a lethal dose of pentobarbital (140 mg/kg, Euthasol®). Subsequently, the hearts were quickly excised and rinsed in cold calcium-free Tyrode solution with the following composition (in mM): 118 NaCl, 4.17 KCl, 1.2 MgSO4, 1.2 KH2PO4, 21 NaHCO3, 11 glucose, and 5 taurine, at pH 7.4. The aorta was promptly cannulated, and the hearts were perfused in a retrograde fashion with warm (37–38°C) Tyrode containing 1.25 mM CaCl2 to flush the coronary arteries of blood and then with a Tyrode solution supplemented with 1 mg/mL collagenase type 2 (Worthington Biochemical Corp, Lakewood, NJ) and 0.2 U.mL^−1 protease type XIV (Sigma, Poole, UK) during 15–20 min. Once enzymatic digestion is completed, ventricles were shredded into small pieces with surgical scissors in 0.5 mM Ca^2+ Tyrode solution, filtered through a 200-µm mesh, and then resuspended in 1 mM Ca^2+ Tyrode solution for 1 h at RT. Isolated cardiomyocytes were incubated in the dark with Fura-2-AM calcium probe (2 µM in 20% v/v DMSO; Life Technologies) for 15 min. Cardiomyocytes were then loaded onto the IonOptix system (IonOptix Corporation, U.S.A.) and perfused with warm (37°C) Tyrode solution. Cardiomyocytes were stimulated at 0.5 Hz using a MyoPacer field stimulator (20 V, 7 ms) to achieve steady state. Fura-2 fluorescence (F) at 510 nm was used to measure cytoplasmic Ca^2+ concentration variation by exciting with UV light at 340 and 380 nm. Cells were paced for 1 to 2 min, ensuring stabilization of the signals, and the effects of the peptides were measured at the end of a 5 min application time. 30-s-long periods were used as the unit duration (representing 15 Ca^2+ transients) during control and after the perfusion of the compound to count the number of arrhythmogenic transients.

The next data set concerns isolated rat heart. The experiment in a line: Ex vivo cardiac electrophysiological recordings (Langendorff, MEA). On the procedure:
Eleven-week-old Wistar-Han rats were first heparinized (heparin sodium, 0.5 U/g i.p.) and then euthanized by i.p. injection of 140 mg/kg pentobarbital (Euthasol®). Hearts were quickly excised and immersed in a cold modified Krebs-Henseleit solution (in mM): 116 NaCl, 5 KCl, 1.1 MgSO4, 7 H2O, 0.35 NaH2PO4, 27 NaHCO3, 10 glucose, and pH 7.4. The aorta was cannulated, and the hearts were perfused on a Langendorff system with warm (36.5–37.5°C) and oxygenated (95% O2/5% CO2) Krebs-Henseleit solution supplemented with 1.8 mM CaCl2, 1 mM lactate, and 0.2 mM pyruvate (control solution) at a constant flow rate of 12 mL/min. Once connected to the Langendorff perfusion system, hearts were perfused with control solution for 10 min to stabilize their activities. Electrical activity of the upper part of the right ventricle was assessed using a 64-electrode array (0.2-mm electrode diameter; 0.36-mm interelectrode distance) connected to an EMS64-USB-1002 amplifier. Single-lead ECG was acquired to monitor global cardiac electrical activity. Data were sampled at 10 kHz per channel and acquired by EMapRecord5 (Mappinglab, Oxford, UK). Data were obtained at baseline (2 min before compound perfusion) and during AaH-II* perfusion for 10 min at various concentrations. Data were analysed using EMapScope5 (Mappinglab, Oxford, UK). Activation times were determined as the point of maximal negative slope. All activation times were related to the timing of the first detected waveform and then used to draw activation maps. An average of three complexes was used for activation time and conduction velocity analyses, while interbeat interval was measured as the average of 10 consecutive intervals. The index of inhomogeneity was calculated as previously described.[23] Arrhythmias were quantified over a period of 2 min in control and after peptide perfusion.

The subject of a further data set is Wistar-Han rats. The format is in vivo, rat. The note with it: rat, in vivo, iv.
The conditions of data set [4]: rat, in vivo, iv.

hNav1.6, sequence (Q9UQD0 other isoform, or with tags, fused parts or gaps): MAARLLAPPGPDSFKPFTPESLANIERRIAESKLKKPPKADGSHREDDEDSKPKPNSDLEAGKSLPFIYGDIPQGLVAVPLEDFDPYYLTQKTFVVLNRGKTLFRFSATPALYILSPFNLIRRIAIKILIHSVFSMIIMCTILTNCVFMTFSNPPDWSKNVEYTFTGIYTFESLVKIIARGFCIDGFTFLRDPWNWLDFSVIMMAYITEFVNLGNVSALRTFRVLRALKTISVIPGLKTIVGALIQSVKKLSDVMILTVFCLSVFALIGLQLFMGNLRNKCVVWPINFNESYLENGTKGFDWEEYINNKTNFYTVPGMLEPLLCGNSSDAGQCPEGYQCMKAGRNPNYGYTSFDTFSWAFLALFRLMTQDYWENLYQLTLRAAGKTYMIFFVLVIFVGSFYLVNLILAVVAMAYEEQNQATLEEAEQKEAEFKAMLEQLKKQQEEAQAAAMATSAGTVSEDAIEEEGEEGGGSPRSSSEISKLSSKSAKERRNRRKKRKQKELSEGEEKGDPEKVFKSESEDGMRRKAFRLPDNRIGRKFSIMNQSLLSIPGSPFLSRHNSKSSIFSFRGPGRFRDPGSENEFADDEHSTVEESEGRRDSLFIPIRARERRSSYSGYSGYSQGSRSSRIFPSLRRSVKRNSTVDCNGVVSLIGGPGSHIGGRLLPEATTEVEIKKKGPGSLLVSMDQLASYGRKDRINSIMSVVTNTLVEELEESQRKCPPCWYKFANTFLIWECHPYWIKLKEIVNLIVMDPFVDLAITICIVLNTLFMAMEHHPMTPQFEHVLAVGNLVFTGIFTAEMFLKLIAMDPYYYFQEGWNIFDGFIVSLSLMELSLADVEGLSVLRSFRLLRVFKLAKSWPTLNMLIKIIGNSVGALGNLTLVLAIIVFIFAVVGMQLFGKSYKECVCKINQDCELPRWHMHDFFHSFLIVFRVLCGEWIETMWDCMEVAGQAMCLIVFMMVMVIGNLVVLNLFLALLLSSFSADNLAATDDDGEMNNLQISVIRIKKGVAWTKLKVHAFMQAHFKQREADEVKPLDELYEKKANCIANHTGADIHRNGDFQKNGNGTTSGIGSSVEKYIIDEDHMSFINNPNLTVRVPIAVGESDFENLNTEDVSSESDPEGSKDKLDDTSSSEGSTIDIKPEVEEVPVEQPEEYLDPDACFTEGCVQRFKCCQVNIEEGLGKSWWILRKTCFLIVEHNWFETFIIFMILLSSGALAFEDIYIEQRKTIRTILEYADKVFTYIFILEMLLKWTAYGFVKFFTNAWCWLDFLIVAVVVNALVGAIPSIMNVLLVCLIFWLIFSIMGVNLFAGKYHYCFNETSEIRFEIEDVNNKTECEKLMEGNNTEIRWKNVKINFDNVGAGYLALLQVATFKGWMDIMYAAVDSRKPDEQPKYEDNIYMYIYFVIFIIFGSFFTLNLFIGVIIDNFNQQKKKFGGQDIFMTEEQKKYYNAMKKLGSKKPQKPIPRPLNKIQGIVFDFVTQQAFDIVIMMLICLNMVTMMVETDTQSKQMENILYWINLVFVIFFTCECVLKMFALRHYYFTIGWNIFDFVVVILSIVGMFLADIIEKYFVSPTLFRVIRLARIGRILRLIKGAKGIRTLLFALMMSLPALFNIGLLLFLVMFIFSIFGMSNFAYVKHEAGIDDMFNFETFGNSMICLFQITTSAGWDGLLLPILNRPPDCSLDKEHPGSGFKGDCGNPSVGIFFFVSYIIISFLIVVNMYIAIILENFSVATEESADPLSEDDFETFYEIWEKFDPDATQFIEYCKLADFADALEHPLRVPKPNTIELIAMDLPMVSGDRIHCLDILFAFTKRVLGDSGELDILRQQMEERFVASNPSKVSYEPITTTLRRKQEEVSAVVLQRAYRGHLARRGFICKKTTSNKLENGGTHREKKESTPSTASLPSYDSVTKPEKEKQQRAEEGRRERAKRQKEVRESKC

Take `NC1=N[C@H](O)[C@H]2[C@H]3O[C@]4(O)O[C@@H]([C@@H](O)[C@@]2(N1)[C@@H]4O)[C@]3(O)CO` [TTX, tetrodotoxin]: the “block of AaH-II*-modified hNav1.6 currents” value on hNav1.6 is “complete block of hNav1.6 currents”. Also, the “block of AaH-II*-triggered INaL” value in data set [1] is on record as “entirely blocked; also recorded: fully blocked”. Moreover, the “block of AaH-II* responses” value in data set [2] is on record as “blocked”. In data set [3], the “calcium transient amplitude and time to peak” value was “reduce the amplitude and increase the time to peak of regular calcium transients moderately”; the “cells presenting SCR events (SCR cells / cells)” value was “does not by itself trigger the appearance of SCR events”. Moreover, in the data set on isolated rat heart, the “interbeat interval (bradycardia)” value is on record as “small bradycardic effect” and the “ventricular conduction velocity / activation time” value is listed as “unaffected; also recorded: does not affect ventricular conduction velocity”. In the data set with Wistar-Han rats, this compound showed a P wave of 16.3 ± 1.4 ms, a PR of 48.5 ± 3.3 ms, a QRS of 18.2 ± 0.7 ms and a QTc of 45.9 ± 2.2. Further, in the data set on Wistar-Han rats, the RR worked out at 194.7 ± 9.3 ms, the RR interval entry is “increases the RR interval progressively with increasing doses”, the T wave area stood at 1.1 ± 0.1 mV/ms and the “arrhythmic rats (rats / all rats)” value was “clearly non-arrhythmic”. This compound also came in with a circulating plasmatic concentration in data set [4] of 403 ± 44 nM.
